Measured values reported in paper PMC4750397 (Clinical lung cancer, 2015).
Marks after values point to notes of the source that are not given here. Values belong to the compound of their own block, whether it stands above or below them.

Assays:
[1] = Plasma pharmacokinetics of regorafenib, M-2 and M-5; format: in vivo, human; conditions: for tmax,md: median (range printed in cell); for tmax,md / AUC(0–24)md Ratio (90% CI) / Cmax,md Ratio (90% CI): n = 6; for AUC(0–24)md Ratio (90% CI) / Cmax,md Ratio (90% CI): Ratio = C2D1:C1D21; for coefficient of variation (CV) in AUC and Cmax: high variability, Table 3A; for Tmax: human, plasma, oral
[2] = Plasma pharmacokinetics of pemetrexed; format: in vivo, human
[3] = test system: patients with advanced nsNSCLCs; conditions: single agent, ref [7], cited from earlier work
human xenograft models = conditions: greater potency than sorafenib; ref [4], [22]; cited from earlier work
patients with NSCLCs = conditions: sunitinib added to cisplatin and pemetrexed; ref [20]; cited from earlier work
[4] = C2 D1, following cisplatin and pemetrexed
[5] = Cycle 1, Day 1 vs Cycle 2, Day 1

Structure (SMILES): NC(=O)c1cc(Oc2ccc(NC(=O)Nc3ccc(Cl)c(C(F)(F)F)c3)c(F)c2)cc[n+]1[O-] [M-5]
- tmax,md ([1]; C1 D21, regorafenib alone): 16.0 (4–24 ^a) hours
- tmax,md [1, 4]: 5.0(0–6.25 ^a) hours
- Mean AUC(0–24)md and Cmax,md on both days (in words) ([1]; C2 D1 vs C1 D21): comparable
- AUC(0–24)md Ratio (90% CI) [1]: 0.84 (0.67–1.06)
- Cmax,md Ratio (90% CI) [1]: 0.97 (0.78–1.20)
- coefficient of variation (CV) in AUC and Cmax [1]: > 150%

Structure (SMILES): Nc1nc2[nH]cc(CCc3ccc(C(=O)N[C@@H](CCC(=O)O)C(=O)O)cc3)c2c(=O)[nH]1 [Pemetrexed]
- mean AUC on both days (in words) [2, 5]: comparable
- mean pemetrexed concentration, before vs after regorafenib (in words) [2, 5]: no difference
- Cmax after regorafenib (in words) ([2]; Cycle 2, Day 1 vs Cycle 1, Day 1): slightly increased
- AUC(0–infinity) Ratio (90% CI) ([2]; Ratio = C2D1:C1D1, n = 8): 1.05 (0.96–1.16)
- Cmax Ratio (90% CI) ([2]; Ratio = C2D1:C1D1, n = 8): 1.20 (1.05–1.35)

Structure (SMILES): CCN(CC)CCNC(=O)c1c(C)[nH]c(/C=C2\C(=O)Nc3ccc(F)cc32)c1C [sunitinib]
- myelosuppression (patients with NSCLCs): substantial myelosuppression

Continued, in another order:

- tmax,md ([1]; C1 D21, regorafenib alone): 4.0 (2–24 ^a) hours
- tmax,md [1, 4]: 5.0 (0–6.25 ^a) hours
- mean AUC(0–24)md lower following the pemetrexed and cisplatin treatment ([1]; C2 D1 vs C1 D21): 48%
- mean Cmax,md lower following the pemetrexed and cisplatin treatment ([1]; C2 D1 vs C1 D21): 38%
- AUC(0–24)md Ratio (90% CI) [1]: 0.52 (0.44–0.61)
- Cmax,md Ratio (90% CI) [1]: 0.62 (0.46–0.83)
- coefficient of variation (CV) in AUC and Cmax [1]: > 75%
Structure (SMILES): CNC(=O)c1cc(Oc2ccc(NC(=O)Nc3ccc(Cl)c(C(F)(F)F)c3)c(F)c2)cc[n+]1[O-] [M-2]

- Mean AUC(0–24)md and Cmax,md on both days (in words) ([1]; C2 D1 vs C1 D21): comparable
- AUC(0–24)md Ratio (90% CI) [1]: 0.93 (0.77–1.12)
- Cmax,md Ratio (90% CI) [1]: 1.03 (0.70–1.51)
- Tmax [1]: 4 h
- Tmax ([1]; 60 mg/day): 4 h
Structure (SMILES): CNC(=O)c1cc(Oc2ccc(NC(=O)Nc3ccc(Cl)c(C(F)(F)F)c3)c(F)c2)ccn1 [Regorafenib, reference compound]
- patients with stable disease for ≥12 weeks ([3]; 4 of 18 evaluable patients): 22%
- Grade 4 or 5 toxicities ([3]; 23 patients): no Grade 4 or 5 toxicities were observed
- progression-free survival of one patient ([3]; one patient): ~40 weeks
- tumor reduction in one patient ([3]; two non-consecutive measurements): > 30%
- potency in human xenograft models relative to sorafenib (human xenograft models): ~ 3 times
